“Also recorded” adds a separate entry of the source.
Columns and labels:
patients [1] = conditions: cited from earlier work; for depression as adverse effect (literature): literature and Physicians' Desk Reference
patients [2] = assay: Hamilton 24 (HAMD) depression scale, multicenter randomized controlled clinical study; format: in vivo, human; conditions: conclusion from the 4-week clinical study, vs ranitidine-group and baseline
Excerpt: The number of cases investigated was 119, which assured that the obtained data reach the level of statistical significance. […] During the statistical evaluation a probability level of p≦0.05 was regarded as significant.
Multicenter, randomized, controlled study; the study can be regarded blind with respect to the psychiatrist's assessment of the results.
4-week treatment period with the administration of the test—or reference medication.
On the occasion of the 1st visit (week-1-0) the recording of the medical history, physical examination, endoscopy (optional), the signing of the consent form, then the assessment of the extent of anxiety during the psychiatric examination, by using the Hamilton 24 (HAMD) and the MADRS (Montgomery Asberg) depression scales as well as the Hamilton Anxiety Rating Scale (HAMA). […]
(§1) The describing statistics (median, quartiles, average, dispersion, case-number, minimum and maximum values) were given for all numerical data variables (age, body weight, height, overall scores for HAMD and MADRS, as well as HAMA). […] The global parameters (the patient's opinion of the changes in the mood and the general condition, the physician's opinion of the general condition of the patient, and the psychiatrist's opinion of the changes in depression and anxiety) were assessed by applying the median-test (SAS NPAR1 WAY method).

patients [3] = conditions: 4-week clinical study
Excerpt: This is followed by a four-week (week 0-4) H2-blocker therapy performed on the basis of the former randomization applying either Quamatel®- or Zantac®—therapy. During randomization they have also taken the female-male ratio into consideration.
as §1

| SMILES | depression as adverse effect (literature) (patients [1]) | antidepressant / depression-reducing effect, conclusion of the study (patients [2]) | efficacy in schizophrenia (literature case studies) (patients [1]; case studies) | gastrointestinal efficacy compared with ranitidine (patients [3]) |
| --- | --- | --- | --- | --- |
| CN/C(=N/CCSCc1nc[nH]c1C)NC#N [cimetidine] | marked depressant effect |  |  |  |
| NC(N)=Nc1nc(CSCCC(N)=NS(N)(=O)=O)cs1 [famotidine] | depression as one of the adverse reactions | specific depression-reducing effect; also recorded: significantly detectable antidepressant effect | effective in the management of schizophrenia | practically displaying the same gastrointestinal efficacy |
| CNC(=C[N+](=O)[O-])NCCSCc1ccc(CN(C)C)o1 [ranitidine] | development of depression could be unquestionably associated with ranitidine-therapy |  |  |  |

Reference: patent US20040010021A1, “Pharmaceutical compositions for the treatment of depression or symptoms suggesting depression” (priority 2000, published 2004)
